Measured values published in PubChem BioAssay (NCI).
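A five-concentration, 48-hour dose response in 96-well plates underlies each endpoint, interpolated linearly between surrounding concentrations. The concentration for 50% growth inhibition is given as GI50. TGI marks complete inhibition of growth.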

Columns and labels:
Assay in all cases: NCI anticancer screen, dose series, 48 h
786-0 renal = test system: 786-0 renal
A549 NSCLC = test system: A549 NSCLC
BT-549 breast = test system: BT-549 breast
HT29 colon = test system: HT29 colon
K-562 leukemia = test system: K-562 leukemia
MDA-MB-231 breast = test system: MDA-MB-231 breast
NCI-H522 lung = test system: NCI-H522 lung
PC-3 prostate = test system: PC-3 prostate
SK-OV-3 ovarian = test system: SK-OV-3 ovarian
SW-620 colon = test system: SW-620 colon

Compound	TGI (786-0 renal)	TGI (A549 NSCLC)	TGI (BT-549 breast)	TGI (HT29 colon)	TGI (K-562 leukemia)	TGI (MDA-MB-231 breast)	TGI (NCI-H522 lung)	TGI (PC-3 prostate)	TGI (SK-OV-3 ovarian)	TGI (SW-620 colon)	GI50 (786-0 renal)	GI50 (A549 NSCLC)	GI50 (BT-549 breast)	GI50 (HT29 colon)	GI50 (K-562 leukemia)	GI50 (MDA-MB-231 breast)	GI50 (NCI-H522 lung)	GI50 (PC-3 prostate)	GI50 (SK-OV-3 ovarian)	GI50 (SW-620 colon)
COc1cccc2c1C(=O)c1c(O)c3c(c(O)c1C2=O)C[C@@](O)(/C(C)=N\O)C[C@@H]3OC1CC(N)C(O)C(C)O1 (some centres undefined)	11.1 µM	6.22 µM	5.65 µM	13.2 µM	7.72 µM	7.17 µM	1.73 µM	8.08 µM	11.7 µM	10.3 µM										
O=C1C=C(Nc2nc(C(=O)O)cc(=O)[nH]2)c2ccccc2C1=O	> 100 µM	> 100 µM	> 100 µM	> 100 µM	> 100 µM	> 100 µM	> 100 µM	> 100 µM	> 100 µM	> 100 µM										
COc1ccc(-c2[nH]ncc2-c2cc(OC)c(OC)c(OC)c2)cc1	13.9 µM	> 38 µM	4.45 µM	0.0326 µM	> 34.4 µM		< 0.01 µM	32.5 µM	20.5 µM	> 41.5 µM	< 0.01 µM	< 0.01 µM	0.0143 µM	< 0.01 µM	< 0.01 µM	0.0271 µM	< 0.01 µM	< 0.01 µM	< 0.01 µM	< 0.01 µM
CC12CCC(O)CC1CCC1C2CCC2(C)C(C3=CC(=O)OC3)CCC12 (centres undefined)	65.2 µM	> 100 µM	> 95.3 µM	> 100 µM	> 100 µM	8.49 µM	4.44 µM	> 100 µM	> 61.5 µM	> 100 µM	22 µM	21.8 µM	11.2 µM	> 100 µM	> 100 µM	0.636 µM	0.686 µM	> 67.4 µM	21.8 µM	> 100 µM
Cc1ccc(-n2c(-c3ccc(Cl)cc3)cs/c2=N\NC(=O)COc2n[nH]c(=O)c3ccccc23)cc1	> 100 µM	> 100 µM	> 100 µM	> 100 µM	> 100 µM	> 100 µM	> 100 µM	> 100 µM	> 100 µM	> 100 µM	51.4 µM	> 100 µM	> 100 µM	> 100 µM	> 100 µM	68.4 µM	> 100 µM	> 100 µM	57.9 µM	> 100 µM
COC(=O)[C@]12CC[C@@H](C)[C@H](C)[C@@H]1C1=CC[C@@H]3[C@@]4(C)C=C(O)C(=O)C(C)=C4CC[C@@]3(C)[C@]1(C)CC2	32.6 µM	31.2 µM	37.4 µM	23 µM	39.2 µM	30.2 µM	14.7 µM	18.4 µM	38.4 µM	35.7 µM	16.4 µM	15.1 µM	15.5 µM	9.35 µM	14.3 µM	13 µM	3.92 µM	4.16 µM	15.6 µM	17.3 µM
COc1ccc2c(c1)C(=O)c1c-2n(CCCCl)c(=O)c2cc(N(C)C)ccc12	> 100 µM	> 100 µM	> 100 µM	> 100 µM	> 100 µM	81 µM	> 100 µM	> 100 µM	> 100 µM	> 100 µM	33.1 µM	> 100 µM	26 µM	> 100 µM	> 100 µM	21.8 µM	18.9 µM	34.5 µM	36.2 µM	> 100 µM
NCC(=O)CCC(=O)O	> 100 µM	> 100 µM	> 100 µM	> 100 µM	> 100 µM	> 100 µM	> 100 µM	> 100 µM	> 100 µM	> 100 µM	> 100 µM	> 100 µM	> 100 µM	> 100 µM	> 100 µM	> 100 µM	> 100 µM	> 100 µM	> 100 µM	> 100 µM
CCc1nc(N)nc(N)c1-c1ccc(Cl)c(N=NN(C)C)c1	> 95.7 µM	99.5 µM	> 94.8 µM	> 91.4 µM	> 65 µM	> 100 µM	99.6 µM	> 100 µM	> 100 µM	> 100 µM										
O=C1C(=O)c2c(nc3ncccn23)-c2ccccc21	0.766 µM	0.516 µM	0.291 µM	2.29 µM	2.75 µM	0.67 µM	0.753 µM	1.34 µM	2.52 µM	0.461 µM	0.304 µM	0.23 µM	0.154 µM	0.838 µM	0.219 µM	0.215 µM	0.232 µM	0.32 µM	1.08 µM	0.214 µM
CC(C)(CCC(C)(C)c1ccccc1)c1ccccc1	29.5 µM	> 100 µM	37.2 µM	27.8 µM	61.2 µM	31.5 µM	29.9 µM	> 100 µM	82.6 µM	35.2 µM										
